Test results as given in patent US11104690B2, “Indazole derivatives useful as inhibitors of diacylglyceride O-acyltransferase 2” (Merck Sharp & Dohme Corp., priority 2016, dated 2021).

molecular target: Human DGAT2 (Homo sapiens (Human), UniProt Q96PD7); experiment: DGAT2 Enzymatic Activity Assay (triolein formation, LC/MS/MS); format: biochemical; details: hDGAT2 Sf-9 membrane prep; 25 μM diolein, 10 μM oleoyl-CoA; room temperature
Method in brief: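 Membranes from Sf-9 cells infected with untagged hDGAT2 baculovirus, 10 ng/μL, at room temperature in 100 mM Tris.Cl pH 7.0, 20 mM MgCl2, 5% ethanol with 25 μM diolein and 10 μM oleoyl-CoA. Triolein quantified by LC/MS/MS against spiked internal standard; IC50 from 4-parameter sigmoidal fit.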

Human DGAT2, sequence (Q96PD7 whole entry): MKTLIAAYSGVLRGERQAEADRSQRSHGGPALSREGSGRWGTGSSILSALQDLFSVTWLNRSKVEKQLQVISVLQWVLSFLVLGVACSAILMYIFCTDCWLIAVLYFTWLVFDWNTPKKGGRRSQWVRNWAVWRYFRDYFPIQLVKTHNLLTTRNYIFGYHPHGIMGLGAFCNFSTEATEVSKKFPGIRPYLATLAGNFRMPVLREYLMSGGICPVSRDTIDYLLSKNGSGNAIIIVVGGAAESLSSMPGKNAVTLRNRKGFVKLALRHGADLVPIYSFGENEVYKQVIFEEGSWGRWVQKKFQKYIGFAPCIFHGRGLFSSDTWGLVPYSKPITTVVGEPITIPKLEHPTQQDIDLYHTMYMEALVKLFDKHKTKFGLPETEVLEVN

Structure (SMILES) | IC50 [nM]
O=C(NCc1cn2cccnc2n1)c1ccc2c(-c3ccccc3Cl)nn(-c3ccc(F)cc3)c2c1 [Example 35, 3-(2-chlorophenyl)-1-(4-fluorophenyl)-N-(imidazo[1,2-a]pyrimidin-2-ylmethyl)-1H-indazole-6-carboxamide] | 415
O=C(NCc1cnoc1)c1ccc2c(-c3ccccc3Cl)nn(-c3ccc(F)cc3)c2c1 [Example 37, 3-(2-chlorophenyl)-1-(4-fluorophenyl)-N-(isoxazol-4-ylmethyl)-1H-indazole-6-carboxamide] | 221
O=C(NCc1cncnc1)c1ccc2c(-c3ccccc3Cl)nn(-c3ccc(F)cc3)c2c1 [Example 38, 3-(2-chlorophenyl)-1-(4-fluorophenyl)-N-(pyrimidin-5-ylmethyl)-1H-indazole-6-carboxamide] | 368
O=C(NCCn1cnnc1)c1ccc2c(-c3ccccc3Cl)nn(-c3ccc(F)cc3)c2c1 [Example 39, 3-(2-chlorophenyl)-1-(4-fluorophenyl)-N-[2-(4H-1,2,4-triazol-4-yl)ethyl]-1H-indazole-6-carboxamide] | 96
O=C(NCc1cnsn1)c1ccc2c(-c3ccccc3Cl)nn(-c3ccc(F)cc3)c2c1 [Example 40, 3-(2-chlorophenyl)-1-(4-fluorophenyl)-N-(1,2,5-thiadiazol-3-ylmethyl)-1H-indazole-6-carboxamide] | 445
CC(C)(CO)NC(=O)c1ccc2c(-c3ccccc3Cl)nn(-c3ccc(F)cc3)c2c1 [Example 42, 3-(2-chlorophenyl)-1-(4-fluorophenyl)-N-(2-hydroxy-1,1-dimethylethyl)-1H-indazole-6-carboxamide] | 26
O=C(NC1(CO)CCCC1)c1ccc2c(-c3ccccc3Cl)nn(-c3ccc(F)cc3)c2c1 [Example 43, 3-(2-chlorophenyl)-1-(4-fluorophenyl)-N-[1-(hydroxymethyl)cyclopentyl]-1H-indazole-6-carboxamide] | 11
O=C(NCC1(O)CCCCC1)c1ccc2c(-c3ccccc3Cl)nn(-c3ccc(F)cc3)c2c1 [Example 44, 3-(2-chlorophenyl)-1-(4-fluorophenyl)-N-[(1-hydroxycyclohexyl)methyl]-1H-indazole-6-carboxamide] | 176
COCCNC(=O)c1ccc2c(-c3ccccc3Cl)nn(-c3ccc(F)cc3)c2c1 [Example 45, 3-(2-chlorophenyl)-1-(4-fluorophenyl)-N-(2-methoxyethyl)-1H-indazole-6-carboxamide] | 424
CC(CO)(CO)NC(=O)c1ccc2c(-c3ccccc3Cl)nn(-c3ccc(F)cc3)c2c1 [Example 46, 3-(2-chlorophenyl)-1-(4-fluorophenyl)-N-[2-hydroxy-1-(hydroxymethyl)-1-methylethyl]-1H-indazole-6-carboxamide] | 49
O=C(NC1(CO)CCOCC1)c1ccc2c(-c3ccccc3Cl)nn(-c3ccc(F)cc3)c2c1 [Example 47, 3-(2-chlorophenyl)-1-(4-fluorophenyl)-N-[4-(hydroxymethyl)tetrahydro-2H-pyran-4-yl]-1H-indazole-6-carboxamide] | 47
O=C(NCc1cnc(C(F)(F)F)nc1)c1ccc2c(-c3ccccc3Cl)nn(-c3ccc(F)cc3)c2c1 [Example 49, 3-(2-chlorophenyl)-1-(4-fluorophenyl)-N-{[2-(trifluoromethyl)pyrimidin-5-yl]methyl}-1H-indazole-6-carboxamide] | 79
C[C@H](NC(=O)c1ccc2c(-c3ccccc3Cl)nn(-c3ccc(F)cc3)c2c1)c1cnc(C(F)(F)F)nc1 [Example 50, 3-(2-chlorophenyl)-1-(4-fluorophenyl)-N-{(1S)-1-[2-(trifluoromethyl)pyrimidin-5-yl]ethyl}-1H-indazole-6-carboxamide] | 34
C[C@H](CS(N)(=O)=O)NC(=O)c1ccc2c(-c3ccccc3Cl)nn(-c3ccc(F)cc3)c2c1 [Example 51, 3-(2-chlorophenyl)-1-(4-fluorophenyl)-N-[(1R)-1-methyl-2-sulfamoylethyl]-1H-indazole-6-carboxamide] | 184
O=C(NCCS(=O)(=O)NC1CCCCC1)c1ccc2c(-c3ccccc3Cl)nn(-c3ccc(F)cc3)c2c1 [Example 53, 3-(2-chlorophenyl)-N-[2-(cyclohexylsulfamoyl)ethyl]-1-(4-fluorophenyl)-1H-indazole-6-carboxamide] | 32
O=C(NCCS(=O)(=O)NCc1ccccc1)c1ccc2c(-c3ccccc3Cl)nn(-c3ccc(F)cc3)c2c1 [Example 54, N-[2-(benzylsulfamoyl)ethyl]-3-(2-chlorophenyl)-1-(4-fluorophenyl)-1H-indazole-6-carboxamide] | 121
O=C(NCCS(=O)(=O)Nc1ccccn1)c1ccc2c(-c3ccccc3Cl)nn(-c3ccc(F)cc3)c2c1 [Example 55, 3-(2-chlorophenyl)-1-(4-fluorophenyl)-N-[2-(pyridin-2-ylsulfamoyl)ethyl]-1H-indazole-6-carboxamide] | 383
O=C(NCCS(=O)(=O)Nc1ccccc1)c1ccc2c(-c3ccccc3Cl)nn(-c3ccc(F)cc3)c2c1 [Example 56, 3-(2-chlorophenyl)-1-(4-fluorophenyl)-N-[2-(phenylsulfamoyl)ethyl]-1H-indazole-6-carboxamide] | 22
O=C(NCCS(=O)(=O)Nc1cccnc1)c1ccc2c(-c3ccccc3Cl)nn(-c3ccc(F)cc3)c2c1 [Example 60, 3-(2-chlorophenyl)-1-(4-fluorophenyl)-N-[2-(pyridin-3-ylsulfamoyl)ethyl]-1H-indazole-6-carboxamide] | 16
O=C(NC1(CO)CC1)c1ccc2c(-c3ccccc3Cl)nn(-c3ccc(F)cc3)c2c1 [Example 61, 3-(2-chlorophenyl)-1-(4-fluorophenyl)-N-[1-(hydroxymethyl)cyclopropyl]-1H-indazole-6-carboxamide] | 73

The next lines start with the values.

IC50 [nM] | Structure (SMILES)
580 | CCOC(=O)C1(NC(=O)c2ccc3c(-c4ccccc4Cl)nn(-c4ccc(F)cc4)c3c2)CC1 [Example 62, ethyl 1-({[3-(2-chlorophenyl)-1-(4-fluorophenyl)-1H-indazol-6-yl]carbonyl}amino)cyclopropane carboxylate]
405 | COC(=O)C1(NC(=O)c2ccc3c(-c4ccccc4Cl)nn(-c4ccc(F)cc4)c3c2)CCCC1 [Example 63, methyl 1-({[3-(2-chlorophenyl)-1-(4-fluorophenyl)-1H-indazol-6-yl]carbonyl}amino)cyclopentane-carboxylate]
310 | C[C@@H](CO)NC(=O)c1ccc2c(-c3ccccc3Cl)nn(-c3ccc(F)cc3)c2c1 [Example 68, 3-(2-chlorophenyl)-1-(4-fluorophenyl)-N-[(1S)-2-hydroxy-1-methylethyl]-1H-indazole-6-carboxamide]
8 | CC(C)[C@@H](CO)NC(=O)c1ccc2c(-c3ccccc3Cl)nn(-c3ccc(F)cc3)c2c1 [Example 69, 3-(2-chlorophenyl)-1-(4-fluorophenyl)-N-[(1S)-1-(hydroxymethyl)-2-methylpropyl]-1H-indazole-6-carboxamide]
607 | CC(C)(O)C1(NC(=O)c2ccc3c(-c4ccccc4Cl)nn(-c4ccc(F)cc4)c3c2)CCOCC1 [Example 70, 3-(2-chlorophenyl)-1-(4-fluorophenyl)-N-[4-(1-hydroxy-1-methylethyl)tetrahydro-2H-pyran-4-yl]-1H-indazole-6-carboxamide]
526 | O=C(N[C@H]1c2ccccc2OC[C@H]1O)c1ccc2c(-c3ccccc3Cl)nn(-c3ccc(F)cc3)c2c1 [Example 71, 3-(2-chlorophenyl)-1-(4-fluorophenyl)-N-[(3S,4S)-3-hydroxy-3,4-dihydro-2H-chromen-4-yl]-1H-indazole-6-carboxamide]
22 | C[C@@H]1CC[C@@H](O)[C@H]1NC(=O)c1ccc2c(-c3ccccc3Cl)nn(-c3ccc(F)cc3)c2c1 [Example 72, 3-(2-chlorophenyl)-1-(4-fluorophenyl)-N-[(1S,2R,5R)-2-hydroxy-5-methylcyclopentyl]-1H-indazole-6-carboxamide]
534 | CCCCC(NC(=O)c1ccc2c(-c3ccccc3Cl)nn(-c3ccc(F)cc3)c2c1)C(O)C(F)(F)F (stereo not shown) [Example 73, 3-(2-chlorophenyl)-1-(4-fluorophenyl)-N-[1-(2,2,2-trifluoro-1-hydroxyethyl)pentyl]-1H-indazole-6-carboxamide]
16 | COC[C@H](NC(=O)c1ccc2c(-c3ccccc3Cl)nn(-c3ccc(F)cc3)c2c1)[C@@H](O)c1ccccc1 [Example 74, 3-(2-chlorophenyl)-1-(4-fluorophenyl)-N-[(1S,2S)-2-hydroxy-1-(methoxymethyl)-2-phenylethyl]-1H-indazole-6-carboxamide]
772 | C[C@H](CO)NC(=O)c1ccc2c(-c3ccccc3Cl)nn(-c3ccc(F)cc3)c2c1 [Example 79, 3-(2-chlorophenyl)-1-(4-fluorophenyl)-N-[(1R)-hydroxy-1-methylethyl]-1H-indazole-6-carboxamide]
127 | O=C(N[C@@H](CO)[C@@H](O)c1ccccc1)c1ccc2c(-c3ccccc3Cl)nn(-c3ccc(F)cc3)c2c1 [Example 80, 3-(2-chlorophenyl)-1-(4-fluorophenyl)-N-[(1S,2S)-2-hydroxy-1-(hydroxymethyl)-2-phenylethyl]-1H-indazole-6-carboxamide]
88 | CC(NC(=O)c1ccc2c(-c3ccccc3Cl)nn(-c3ccc(F)cc3)c2c1)C(O)C(F)(F)F (stereo not shown) [Example 81, 3-(2-chlorophenyl)-1-(4-fluorophenyl)-N-(3,3,3-trifluoro-2-hydroxy-1-methylpropyl)-1H-indazole-6-carboxamide]
36 | O=C(N[C@H](CO)c1ccccc1)c1ccc2c(-c3ccccc3Cl)nn(-c3ccc(F)cc3)c2c1 [Example 82, 3-(2-chlorophenyl)-1-(4-fluorophenyl)-N-[(1S)-2-hydroxy-1-phenylethyl]-1H-indazole-6-carboxamide]
156 | O=C(NC1CCCC1)c1ccc2c(-c3ccccc3Cl)nn(-c3ccc(F)cc3)c2c1 [Example 84, 3-(2-chlorophenyl)-N-cyclopentyl-1-(4-fluorophenyl)-1H-indazole-6-carboxamide]
